Test results taken from the supplement of paper PMC10307832.

Key:
Test in all cases: relative viability (nuclei count vs DMSO), 5 days (fraction); higher = more cells survive
IPA-3 + Tozasertib = compound: C1=CC=C2C(=C1)C=CC(=C2SSC3=C(C=CC4=CC=CC=C43)O)O [IPA-3] + Cc1cc(Nc2cc(N3CCN(C)CC3)nc(Sc3ccc(NC(=O)C4CC4)cc3)n2)n[nH]1 [Tozasertib] (partner 0.1 µM)
How it was run: (§1)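 Relative viability is defined as nuclei in treated wells over nuclei in vehicle wells. Duplicate plates were run and medians reported. Lung cancer cell lines in 1536-well plates were dosed by pin tool one day after seeding, with one drug or with a fixed anchor-drug dose plus five library-drug doses (not always all listed) in √10 steps, and nuclei were counted after 5 days.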

Doramapimod + OSI-027 = compound: Cc1ccc(-n2nc(C(C)(C)C)cc2NC(=O)Nc2ccc(OCCN3CCOCC3)c3ccccc23)cc1 [Doramapimod] + COc1cccc2cc(-c3nc([C@H]4CC[C@H](C(=O)O)CC4)n4ncnc(N)c34)[nH]c12 [OSI-027] (partner 0.5 µM)
How it was run: as §1

RAF265 + Pictilisib = compound: Cn1c(Nc2ccc(C(F)(F)F)cc2)nc2cc(Oc3ccnc(-c4ncc(C(F)(F)F)[nH]4)c3)ccc21 [RAF265] + CS(=O)(=O)N1CCN(Cc2cc3nc(-c4cccc5[nH]ncc45)nc(N4CCOCC4)c3s2)CC1 [Pictilisib] (partner 1 µM)
How it was run: as §1

RAF265 + Vorinostat = compound: Cn1c(Nc2ccc(C(F)(F)F)cc2)nc2cc(Oc3ccnc(-c4ncc(C(F)(F)F)[nH]4)c3)ccc21 [RAF265] + O=C(CCCCCCC(=O)Nc1ccccc1)NO [Vorinostat] (partner 1 µM)
How it was run: as §1

| Cell Line | relative viability (IPA-3 + Tozasertib; first compound 0.2 µM) | relative viability (IPA-3 + Tozasertib; first compound 0.6325 µM) | relative viability (IPA-3 + Tozasertib; first compound 2 µM) | relative viability (IPA-3 + Tozasertib; first compound 6.325 µM) | relative viability (IPA-3 + Tozasertib; first compound 20 µM) | relative viability (Doramapimod + OSI-027; first compound 0.02 µM) | relative viability (Doramapimod + OSI-027; first compound 0.06325 µM) | relative viability (Doramapimod + OSI-027; first compound 0.2 µM) | relative viability (Doramapimod + OSI-027; first compound 0.6325 µM) | relative viability (Doramapimod + OSI-027; first compound 2 µM) | relative viability (RAF265 + Pictilisib; first compound 0.01 µM) | relative viability (RAF265 + Pictilisib; first compound 0.03162 µM) | relative viability (RAF265 + Pictilisib; first compound 0.1 µM) | relative viability (RAF265 + Pictilisib; first compound 0.3162 µM) | relative viability (RAF265 + Pictilisib; first compound 1 µM) | relative viability (RAF265 + Vorinostat; first compound 0.01 µM) | relative viability (RAF265 + Vorinostat; first compound 0.03162 µM) | relative viability (RAF265 + Vorinostat; first compound 0.1 µM) | relative viability (RAF265 + Vorinostat; first compound 0.3162 µM) | relative viability (RAF265 + Vorinostat; first compound 1 µM) |
| --- | --- | --- | --- | --- | --- | --- | --- | --- | --- | --- | --- | --- | --- | --- | --- | --- | --- | --- | --- | --- |
| NCI-H2405 | 0.796 | 0.755 | 0.727 | 0.748 | 0.774 | 0.654 | 0.596 | 0.606 | 0.74 | 0.598 | 0.529 | 0.473 | 0.397 | 0.368 | 0.231 | 1.02 | 0.888 | 1.08 | 0.683 | 0.465 |
| NCI-H3122 | 0.431 | 0.4 | 0.381 | 0.509 | 0.428 | 0.956 | 0.853 | 0.938 | 1.04 | 1.01 | 0.586 | 0.831 | 0.575 | 0.452 | 0.301 | 1.02 | 1.01 | 0.93 | 0.965 | 0.631 |
| PC-3 [JPC-3] | 0.995 | 0.847 | 0.869 | 0.833 | 0.878 | 0.845 | 0.735 | 0.742 | 0.779 | 0.749 | 0.686 | 0.676 | 0.727 | 0.333 | 0.417 | 0.942 | 0.78 | 1.08 | 0.455 | 0.487 |
| PC-14 | 0.693 | 0.612 | 0.647 | 0.539 | 0.649 | 0.933 | 0.671 | 0.872 | 1.01 | 0.635 | 0.737 |  | 0.733 |  | 0.312 | 0.743 | 0.642 | 0.632 |  | 0.619 |
| RERF-LC-KJ | 0.513 | 0.452 | 0.471 | 0.456 | 0.403 | 0.624 | 0.543 | 0.603 | 0.6 | 0.554 | 0.49 | 0.236 | 0.545 | 0.42 | 0.23 | 0.704 | 0.647 | 0.772 | 0.649 | 0.582 |
| SK-LU-1 | 0.328 | 0.36 | 0.338 | 0.339 | 0.302 | 0.332 | 0.382 | 0.379 | 0.35 | 0.383 | 0.688 | 0.422 | 0.41 | 0.297 | 0.27 | 0.715 | 0.449 | 0.443 | 0.36 | 0.262 |
| SK-MES-1 | 0.991 | 0.775 | 0.933 | 0.804 | 0.694 | 0.643 | 0.571 | 0.565 | 0.573 | 0.521 | 0.311 | 0.301 | 0.218 | 0.214 | 0.141 | 1.12 | 0.772 | 0.519 | 0.398 | 0.343 |
| SW 1573 | 0.16 | 0.23 | 0.222 | 0.155 | 0.136 | 0.585 | 0.514 | 0.485 | 0.586 | 0.352 | 0.597 | 0.445 | 0.542 | 0.399 | 0.221 | 1 | 0.763 | 0.834 | 0.792 | 0.582 |
